Results published in patent publication US10584115B2, “Substituted pyridine and pyrazine BMI-1 inhibitors” (PTC Therapeutics, Inc., priority 2013, dated 2020).
pEC50: −log10 of the molar value.

Test system: Bmi-1 protein
Assay: Sandwich ELISA Assay (Bmi-1 protein level in HT-1080 cells after compound treatment)
Format: cell-based
Conditions: Table 1, Bmi-1 sandwich ELISA, read-out: ELISA EC50 value for Bmi-1 protein
Method in brief: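 HT-1080 cells exposed to compounds for 40–48 h at 37 °C (0.5% DMSO final), then lysed. Bmi-1 in lysates measured by sandwich ELISA (mouse monoclonal capture, rabbit anti-Bmi-1 detection, HRP anti-rabbit, TMB), read at OD450 with OD570 reference against a recombinant Bmi-1 standard curve (0–8000 pg/mL).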

SMILES | pEC50
Cc1nc(C)n(-c2cncc(Nc3ccc(C(F)(F)F)cc3)n2)c1C [compound 342, N-[4-(trifluoromethyl)phenyl]-6-(2,4,5-trimethyl-1H-imidazol-1-yl)pyrazin-2-amine] | 7.00 to 8.00
Cc1ccc2nc(C)n(-c3cncc(Nc4ccc(C(F)(F)F)cc4)n3)c2c1 [compound 343, 6-(2,6-dimethyl-1H-benzimidazol-1-yl)-N-[4-(trifluoromethyl)phenyl]pyrazin-2-amine] | 8.00 to 9.00
Cc1nc2cc(Cl)ccc2n1-c1cc(C#N)cc(Nc2ccc(C(F)(F)F)cc2)n1 [compound 344, 2-(5-chloro-2-methyl-1H-benzimidazol-1-yl)-6-{[4-(trifluoromethyl)phenyl]amino}pyridine-4-carbonitrile] | 5.52 to 7.00
Cc1nc2ccc(Cl)cc2n1-c1cc(C#N)cc(Nc2ccc(C(F)(F)F)cc2)n1 [compound 345, 2-(6-chloro-2-methyl-1H-benzimidazol-1-yl)-6-{[4-(trifluoromethyl)phenyl]amino}pyridine-4-carbonitrile] | 7.00 to 8.00
N#Cc1cc(Nc2ccc(OC(F)F)cc2)nc(-c2c(C3CC3)nc3ccc(F)cn23)c1 [compound 348, 2-(2-cyclopropyl-6-fluoroimidazo[1,2-a]pyridin-3-yl)-6-{[4-(difluoromethoxy)phenyl]amino}pyridine-4-carbonitrile] | 8.00 to 9.00
COc1c(F)cc(Nc2cc(C#N)cc(-c3c(C4CC4)nc4ccc(F)cn34)n2)cc1F [compound 351, 2-(2-cyclopropyl-6-fluoroimidazo[1,2-a]pyridin-3-yl)-6-[(3,5-difluoro-4-methoxyphenyl)amino}pyridine-4-carbonitrile] | 7.00 to 8.00
Cc1cc(-c2cncc(Nc3ccc(C(F)(F)F)cc3)n2)ccn1 [compound 353, 6-(2-methylpyridin-4-yl)-N-[4-(trifluoromethyl)phenyl]pyrazin-2-amine] | 5.52 to 7.00
FC(F)(F)c1ccc(Nc2cncc(-c3ccnc(-c4ccnc(Cl)c4)c3)n2)cc1 [compound 354, 6-(2′-chloro-2,4′-bipyridin-4-yl)-N-[4-(trifluoromethyl)phenyl]pyrazin-2-amine] | 5.52 to 7.00
Cc1nc2cc(OC(F)(F)F)ccc2n1-c1cncc(Nc2ccc(C(F)(F)F)cc2)n1 [compound 356, 6-[2-methyl-5-(trifluoromethoxy)-1H-benzimidazol-1-yl]-N-[4-(trifluoromethyl)phenyl]pyrazin-2-amine] | 5.52 to 7.00
Cc1nc2ccc(OC(F)(F)F)cc2n1-c1cncc(Nc2ccc(C(F)(F)F)cc2)n1 [compound 357, 6-[2-methyl-6-(trifluoromethoxy)-1H-benzimidazol-1-yl]-N-[4-(trifluoromethyl)phenyl]pyrazin-2-amine] | 5.52 to 7.00
Cc1nc2cccc(F)c2n1-c1cncc(Nc2ccc(C(F)(F)F)cc2)n1 [compound 358, 6-(7-fluoro-2-methyl-1H-benzimidazol-1-yl)-N-[4-(trifluoromethyl)phenyl]pyrazin-2-amine] | 7.00 to 8.00
Cc1nc2cc(F)c(F)cc2n1-c1cc(C#N)cc(Nc2ccc(C(F)(F)F)c(F)c2)n1 [compound 359, 2-(5,6-difluoro-2-methyl-1H-benzimidazol-1-yl)-6-{[3-fluoro-4-(trifluoromethyl)phenyl]amino}pyridine-4-carbonitrile] | 5.52 to 7.00
Cc1nc2ncccc2n1-c1cncc(NC2=CCC(F)(C(F)(F)F)C=C2)n1 (stereo not shown) [compound 360, N-[4-fluoro-4-(trifluoromethyl)phenyl]-6-(2-methyl-1H-imidazo[4,5-b]pyridin-1-yl)pyrazin-2-amine] | 7.00 to 8.00
Cc1nc2ncc(Cl)cc2n1-c1cncc(Nc2ccc(C(F)(F)F)cc2)n1 [compound 361, 6-(6-chloro-2-methyl-1H-imidazo[4,5-b]pyridin-1-yl)-N-[4-(trifluoromethyl)phenyl]pyrazin-2-amine] | 8.00 to 9.00
Nc1cc(Nc2ccc(C(F)(F)F)c(F)c2)nc(-c2c(C3CC3)nc3ccc(F)cn23)c1 [compound 364, 6-(2-cyclopropyl-6-fluoroimidazo[1,2-a]pyridin-3-yl)-N^2-[3-fluoro-4-(trifluoromethyl)phenyl]pyridine-2,4-diamine] | 7.00 to 8.00
CCc1nc2cnccc2n1-c1cncc(Nc2ccc(C(F)(F)F)cc2)n1 [compound 370, 6-(2-ethyl-1H-imidazo[4,5-c]pyridin-1-yl)-N-[4-(trifluoromethyl)phenyl]pyrazin-2-amine] | 5.52 to 7.00
Cc1nc2ncncc2n1-c1cncc(Nc2ccc(C(F)(F)F)cc2)n1 [compound 371, 6-(8-methyl-7H-purin-7-yl)-N-[4-(trifluoromethyl)phenyl]pyrazin-2-amine] | 5.52 to 7.00
Cc1nc2ncc(F)cc2n1-c1cncc(Nc2ccc(C(F)(F)F)c(F)c2)n1 [compound 373, 6-(6-fluoro-2-methyl-1H-imidazo[4,5-b]pyridin-1-yl)-N-[3-fluoro-4-(trifluoromethyl)phenyl]pyrazin-2-amine] | 7.00 to 8.00
CCc1nc2ncc(F)cc2n1-c1cncc(Nc2ccc(C(F)(F)F)c(F)c2)n1 [compound 374, 6-(2-ethyl-6-fluoro-1H-imidazo[4,5-b]pyridin-1-yl)-N-[3-fluoro-4-(trifluoromethyl)phenyl]pyrazin-2-amine] | 7.00 to 8.00
C=CCN1CCc2c(nc(C)n2-c2cncc(Nc3ccc(C(F)(F)F)cc3)n2)C1 [compound 375] | 5.52 to 7.00
COc1ccc2nc(C)c(-c3cncc(Nc4ccc(C(F)(F)F)cc4)n3)n2c1 [compound 376, 6-(6-methoxy-2-methylimidazo[1,2-a]pyridin-3-yl)-N-[4-(trifluoromethyl)phenyl]pyrazin-2-amine] | 7.00 to 8.00

Second part, the compound after the results:

pEC50 | SMILES
7.00 to 8.00 | COc1ccc2nc(C)c(-c3cncc(Nc4ccc(OC(F)(F)F)cc4)n3)n2c1 [compound 377, 6-(6-methoxy-2-methylimidazo[1,2-a]pyridin-3-yl)-N-[4-(trifluoromethoxy)phenyl]pyrazin-2-amine]
7.00 to 8.00 | Cc1nc2ccc(O)cn2c1-c1cncc(Nc2ccc(C(F)(F)F)cc2)n1 [compound 378, 2-methyl-3-(6-{[4-(trifluoromethyl)phenyl]amino}pyrazin-2-yl)imidazo[1,2-a]pyridin-6-ol]
7.00 to 8.00 | COc1ccc2nc(C)c(-c3cc(C#N)cc(Nc4ccc(C(F)(F)F)cc4)n3)n2c1 [compound 379, 2-(6-methoxy-2-methylimidazo[1,2-a]pyridin-3-yl)-6-{[4-(trifluoromethyl)phenyl]amino}pyridine-4-carbonitrile]
7.00 to 8.00 | COc1ccc2nc(C)c(-c3cc(C#N)cc(Nc4ccc(OC(F)(F)F)cc4)n3)n2c1 [compound 380, 2-(6-methoxy-2-methylimidazo[1,2-a]pyridin-3-yl)-6-{[4-(trifluoromethoxy)phenyl]amino}pyridine-4-carbonitrile]
7.00 to 8.00 | Cc1nc2ccc(O)cn2c1-c1cc(C#N)cc(Nc2ccc(C(F)(F)F)cc2)n1 [compound 381, 2-(6-hydroxy-2-methylimidazo[1,2-a]pyridin-3-yl)-6-{[4-(trifluoromethyl)phenyl]amino}pyridine-4-carbonitrile]
7.00 to 8.00 | N#Cc1cc(Nc2ccc(C(F)(F)F)cc2)nc(-c2c(CO)nc3ccc(F)cn23)c1 [compound 383, 2-[6-fluoro-2-(hydroxymethyl)imidazo[1,2-a]pyridin-3-yl]-6-{[4-(trifluoromethyl)phenyl]amino}pyridine-4-carbonitrile]
5.52 to 7.00 | FC(F)(F)c1ccc(Nc2cncc(-c3ccnc4ccccc34)n2)cc1 [compound 384, 6-(quinolin-4-yl)-N-[4-(trifluoromethyl)phenyl]pyrazin-2-amine]
5.52 to 7.00 | FC(F)(F)c1ccc(Nc2cncc(-c3ccnc4cc(Cl)ccc34)n2)cc1 [compound 385, 6-(7-chloroquinolin-4-yl)-N-[4-(trifluoromethyl)phenyl]pyrazin-2-amine]
5.52 to 7.00 | Cc1cc2nc(C)n(-c3cncc(Nc4ccc(C(F)(F)F)cc4)n3)c2cc1C [compound 386, N-[4-(trifluoromethyl)phenyl]-6-(2,5,6-trimethyl-1H-benzimidazol-1-yl)pyrazin-2-amine]
5.52 to 7.00 | Cc1cc2nc(C)n(-c3cncc(Nc4ccc(OC(F)(F)F)cc4)n3)c2cc1C [compound 387, N-[4-(trifluoromethoxy)phenyl]-6-(2,5,6-trimethyl-1H-benzimidazol-1-yl)pyrazin-2-amine]
7.00 to 8.00 | Cc1nc2ccc(Br)cc2n1-c1cncc(Nc2ccc(C(F)(F)F)cc2)n1 [compound 388, 6-(6-bromo-2-methyl-1H-benzimidazol-1-yl)-N-[4-(trifluoromethyl)phenyl]pyrazin-2-amine]
7.00 to 8.00 | Cc1nc2ccccc2n1-c1cncc(Nc2ccc(C(F)(F)F)c(Cl)c2)n1 [compound 390, N-[3-chloro-4-(trifluoromethyl)phenyl]-6-(2-methyl-1H-benzimidazol-1-yl)pyrazin-2-amine]
7.00 to 8.00 | N#Cc1cc(Nc2ccc(OC(F)F)cc2)nc(-c2c(CO)nc3ccc(F)cn23)c1 [compound 393, 2-{[4-(difluoromethoxy)phenyl]amino}-6-[6-fluoro-2-(hydroxymethyl)imidazo[1,2-a]pyridin-3-yl]pyridine-4-carbonitrile]
7.00 to 8.00 | N#Cc1cc(Nc2ccc(OC(F)F)c(F)c2)nc(-c2c(CO)nc3ccc(F)cn23)c1 [compound 394, 2-{[4-(difluoromethoxy)-3-fluorophenyl]amino}-6-[6-fluoro-2-(hydroxymethyl)imidazo[1,2-a]pyridin-3-yl]pyridine-4-carbonitrile]
5.52 to 7.00 | N#Cc1cc(Nc2ccc(C(F)(F)F)c(F)c2)nc(-c2c(CO)nc3ccc(F)cn23)c1 [compound 395, 2-[6-fluoro-2-(hydroxymethyl)imidazo[1,2-a]pyridin-3-yl]-6-{[3-fluoro-4-(trifluoromethyl)phenyl]amino}pyridine-4-carbonitrile]
7.00 to 8.00 | Cc1nc2ccc(O)cn2c1-c1cc(C#N)cc(Nc2ccc(OC(F)(F)F)cc2)n1 [compound 396, 2-(6-hydroxy-2-methylimidazo[1,2-a]pyridin-3-yl)-6-{[4-(trifluoromethoxy)phenyl]amino}pyridine-4-carbonitrile]
